Laboratory results as given in ChEMBL document CHEMBL2331380, “Evaluation of potential Myt1 kinase inhibitors by TR-FRET based binding assay” (Eur J Med Chem, 2013).

How the values were obtained:
[1] = Binding affinity to human full-length His-tagged Myt1 kinase expressed in HEK293 cells at 30 ug/ml by TR-FRET based binding assay
[2] = Binding affinity to human full-length His-tagged Myt1 kinase expressed in HEK293 cells at 3 ug/ml by TR-FRET based binding assay

Compound	Activity [1] [%]	Activity [2] [%]
CCCCCCCCCCCCCCCC(=O)NC[C@H]1O[C@@H](OC[C@@H](COC(=O)CCCCCCCCCCCCCCC)OC(=O)CCCCCCCCCCCCCCC)[C@H](O)[C@@H](O)[C@@H]1O	< 5	< 5
CCCCCCCCCCCCCCCC(=O)NC[C@H]1O[C@@H](OC[C@@H](COC(=O)CCCCCCCCCCCCCCC)OC(=O)CCCCCCCCCCCCCCC)[C@H](O)[C@@H](O)[C@H]1O	< 5	< 5
CCCCCCCCCCCCCCCC(=O)NC[C@H]1O[C@H](OC[C@@H](COC(=O)CCCCCCCCCCCCCCC)OC(=O)CCCCCCCCCCCCCCC)[C@@H](O)[C@@H](O)[C@@H]1O	< 5	< 5
CCCCCCCCCCCCCCCC(=O)NC[C@H]1O[C@@H](OC[C@@H](COC(=O)CCCCCCCCCCCCCCC)OC(=O)CCCCCCCCCCCCCCC)[C@@H](O)[C@@H](O)[C@@H]1O	7.53	< 5
CCCCCCCC(=O)NC[C@H]1O[C@@H](OC[C@@H](COC(=O)CCCCCCC)OC(=O)CCCCCCC)[C@H](O)[C@@H](O)[C@@H]1O	< 5	< 5
CCCCCCCCCCCCCCCC(=O)NC[C@H]1O[C@H](OC[C@@H](COC(=O)CCCCCCCCCCCCCCC)OC(=O)CCCCCCCCCCCCCCC)[C@H](O)[C@@H](O)[C@H]1O	< 5	< 5
CCCCCCCCCCCCCCCC(=O)NC[C@H]1O[C@H](OC[C@@H](COC(=O)CCCCCCCCCCCCCCC)OC(=O)CCCCCCCCCCCCCCC)[C@H](O)[C@@H](O)[C@@H]1O	< 5	< 5
